This is an account of results in patent US8129417B2, “Substituted octahydrocyclopenta[C]pyrrol-4-amines as calcium channel blockers” (Abbott Laboratories, priority 2008, dated 2012).

pIC50: −log10 of the molar value.

Sequence of human Cav2.2 (Q00975 whole entry): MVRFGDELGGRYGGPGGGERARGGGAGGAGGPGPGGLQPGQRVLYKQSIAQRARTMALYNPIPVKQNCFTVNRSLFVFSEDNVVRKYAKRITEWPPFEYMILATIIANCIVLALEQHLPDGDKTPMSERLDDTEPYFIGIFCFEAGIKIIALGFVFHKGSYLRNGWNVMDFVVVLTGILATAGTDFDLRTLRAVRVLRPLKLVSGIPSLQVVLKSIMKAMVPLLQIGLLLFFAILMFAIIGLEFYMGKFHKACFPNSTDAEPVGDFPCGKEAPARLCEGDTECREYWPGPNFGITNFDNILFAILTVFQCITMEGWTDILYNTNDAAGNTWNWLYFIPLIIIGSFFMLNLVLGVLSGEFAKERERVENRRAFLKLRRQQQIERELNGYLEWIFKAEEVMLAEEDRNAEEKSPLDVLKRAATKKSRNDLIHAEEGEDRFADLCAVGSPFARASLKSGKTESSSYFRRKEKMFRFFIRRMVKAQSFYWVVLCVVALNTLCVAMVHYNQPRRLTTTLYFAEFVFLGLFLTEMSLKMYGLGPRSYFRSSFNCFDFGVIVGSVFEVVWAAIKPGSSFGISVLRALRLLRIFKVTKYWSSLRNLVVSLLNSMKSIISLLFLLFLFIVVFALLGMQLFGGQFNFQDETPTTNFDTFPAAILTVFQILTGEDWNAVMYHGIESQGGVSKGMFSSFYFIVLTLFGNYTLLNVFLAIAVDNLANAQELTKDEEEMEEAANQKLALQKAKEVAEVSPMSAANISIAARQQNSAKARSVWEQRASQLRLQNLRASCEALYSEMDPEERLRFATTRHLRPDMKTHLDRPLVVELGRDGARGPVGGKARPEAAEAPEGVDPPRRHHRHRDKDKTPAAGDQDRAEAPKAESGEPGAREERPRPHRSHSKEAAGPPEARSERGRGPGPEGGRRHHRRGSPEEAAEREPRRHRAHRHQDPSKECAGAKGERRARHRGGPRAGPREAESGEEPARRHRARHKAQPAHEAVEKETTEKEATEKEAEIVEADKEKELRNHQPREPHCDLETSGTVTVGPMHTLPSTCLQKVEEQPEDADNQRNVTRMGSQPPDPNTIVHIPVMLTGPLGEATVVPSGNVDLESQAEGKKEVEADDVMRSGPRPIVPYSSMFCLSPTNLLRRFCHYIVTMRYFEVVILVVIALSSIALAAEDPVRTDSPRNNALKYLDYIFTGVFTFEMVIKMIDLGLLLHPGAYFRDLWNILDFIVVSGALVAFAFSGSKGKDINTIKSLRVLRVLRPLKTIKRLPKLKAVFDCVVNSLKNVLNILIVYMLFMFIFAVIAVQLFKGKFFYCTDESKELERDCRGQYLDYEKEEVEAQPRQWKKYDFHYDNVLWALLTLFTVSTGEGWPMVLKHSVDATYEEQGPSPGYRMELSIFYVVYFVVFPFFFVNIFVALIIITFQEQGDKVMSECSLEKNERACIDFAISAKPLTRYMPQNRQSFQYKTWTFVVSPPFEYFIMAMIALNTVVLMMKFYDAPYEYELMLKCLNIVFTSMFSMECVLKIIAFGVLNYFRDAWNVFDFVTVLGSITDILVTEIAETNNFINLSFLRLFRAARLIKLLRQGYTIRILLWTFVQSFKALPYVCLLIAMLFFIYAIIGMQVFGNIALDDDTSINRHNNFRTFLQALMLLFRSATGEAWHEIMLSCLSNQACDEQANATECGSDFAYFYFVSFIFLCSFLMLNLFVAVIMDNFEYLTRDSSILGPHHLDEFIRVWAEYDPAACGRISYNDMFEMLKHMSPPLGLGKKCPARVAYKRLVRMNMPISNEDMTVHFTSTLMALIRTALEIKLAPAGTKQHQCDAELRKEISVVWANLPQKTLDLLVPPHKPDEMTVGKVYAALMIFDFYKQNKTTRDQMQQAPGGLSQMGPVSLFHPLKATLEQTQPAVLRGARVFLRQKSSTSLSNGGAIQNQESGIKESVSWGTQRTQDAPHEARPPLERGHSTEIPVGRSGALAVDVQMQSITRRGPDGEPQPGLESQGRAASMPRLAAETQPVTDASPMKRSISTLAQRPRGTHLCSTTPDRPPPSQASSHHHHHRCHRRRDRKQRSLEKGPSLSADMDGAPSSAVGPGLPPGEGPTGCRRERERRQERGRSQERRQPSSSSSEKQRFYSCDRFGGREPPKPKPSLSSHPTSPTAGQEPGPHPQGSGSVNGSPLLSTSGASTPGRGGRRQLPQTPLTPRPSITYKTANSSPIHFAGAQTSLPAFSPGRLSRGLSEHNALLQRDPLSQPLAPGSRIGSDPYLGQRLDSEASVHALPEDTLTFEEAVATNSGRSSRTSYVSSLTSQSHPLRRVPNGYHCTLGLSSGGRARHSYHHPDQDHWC
Sequence of human Cav2.2 (P54289 25-946 partner limits assumed): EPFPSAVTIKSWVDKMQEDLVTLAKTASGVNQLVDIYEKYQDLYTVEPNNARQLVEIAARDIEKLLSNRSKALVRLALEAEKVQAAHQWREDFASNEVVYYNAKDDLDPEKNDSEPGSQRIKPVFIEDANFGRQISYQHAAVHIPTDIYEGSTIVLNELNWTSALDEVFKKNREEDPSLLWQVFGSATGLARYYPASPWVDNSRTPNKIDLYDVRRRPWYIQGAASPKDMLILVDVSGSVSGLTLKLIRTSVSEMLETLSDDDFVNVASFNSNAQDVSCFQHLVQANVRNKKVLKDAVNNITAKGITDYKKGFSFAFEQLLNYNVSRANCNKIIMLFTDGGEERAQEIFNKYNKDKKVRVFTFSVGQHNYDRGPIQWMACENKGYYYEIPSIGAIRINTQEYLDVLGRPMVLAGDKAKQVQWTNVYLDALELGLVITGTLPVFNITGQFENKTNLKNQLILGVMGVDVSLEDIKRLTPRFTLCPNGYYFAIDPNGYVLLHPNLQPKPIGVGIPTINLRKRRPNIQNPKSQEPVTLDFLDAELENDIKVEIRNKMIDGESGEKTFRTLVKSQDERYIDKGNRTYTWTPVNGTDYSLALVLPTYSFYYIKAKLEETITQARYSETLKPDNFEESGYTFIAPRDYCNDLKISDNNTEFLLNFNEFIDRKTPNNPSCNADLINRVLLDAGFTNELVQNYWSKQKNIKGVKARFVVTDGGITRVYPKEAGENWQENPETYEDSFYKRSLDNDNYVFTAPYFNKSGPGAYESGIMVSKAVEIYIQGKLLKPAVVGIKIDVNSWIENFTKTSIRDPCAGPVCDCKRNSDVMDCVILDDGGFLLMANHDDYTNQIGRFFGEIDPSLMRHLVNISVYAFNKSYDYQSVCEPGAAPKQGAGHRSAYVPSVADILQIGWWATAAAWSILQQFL
Sequence of human Cav2.2 (P54289 947-1103 partner limits assumed): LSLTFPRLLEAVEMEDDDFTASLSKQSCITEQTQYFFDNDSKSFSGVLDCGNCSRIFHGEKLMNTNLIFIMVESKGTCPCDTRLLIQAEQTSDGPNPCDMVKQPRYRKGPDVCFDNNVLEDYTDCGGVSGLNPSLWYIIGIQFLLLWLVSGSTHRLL
Sequence of human Cav2.2 (P54284 whole entry partner): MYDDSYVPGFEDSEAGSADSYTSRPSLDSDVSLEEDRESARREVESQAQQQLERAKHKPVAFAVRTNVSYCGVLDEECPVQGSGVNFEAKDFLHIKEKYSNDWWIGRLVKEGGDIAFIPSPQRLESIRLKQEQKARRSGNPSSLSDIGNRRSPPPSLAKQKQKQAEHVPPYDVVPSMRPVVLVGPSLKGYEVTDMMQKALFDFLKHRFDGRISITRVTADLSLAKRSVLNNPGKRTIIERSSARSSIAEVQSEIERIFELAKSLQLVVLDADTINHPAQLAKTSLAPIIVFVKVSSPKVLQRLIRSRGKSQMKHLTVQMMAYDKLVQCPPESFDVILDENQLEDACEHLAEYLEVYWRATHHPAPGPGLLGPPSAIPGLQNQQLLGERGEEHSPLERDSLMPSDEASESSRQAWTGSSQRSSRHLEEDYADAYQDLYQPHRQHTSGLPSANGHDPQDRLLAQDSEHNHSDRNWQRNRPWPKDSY

The target of the assay is human Cav2.2 (Homo sapiens, UniProt Q00975). In words: Assessment of calcium channel activity using FLIPR (Ca2+ influx in IMR32 cells). Type of assay: cell-based. The note with it: 60 minute pre-incubation with compound, 2 μM nifedipine, depolarized with 80 mM KCl. A digest of the protocol:
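IMR32 neuroblastoma cells seeded at 1-1.2×10^5 cells/well and grown 48 h at 37 °C before FLIPR Ca2+ influx read. Percent inhibition at each concentration vs no-inhibitor activity; IC50 by non-linear sigmoidal dose-response fit.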
Consider `CC(C)(C)[C@H](N)C(=O)N[C@H]1CC[C@@H]2CN(S(=O)(=O)c3ccc(C(F)(F)F)cc3)C[C@@H]21` [Example 408, 3-methyl-N^1-((3aR,4S,6aS)-2-{[4-(trifluoromethyl)phenyl]sulfonyl}octahydrocyclopenta[c]pyrrol-4-yl)-L-valinamide], for which the pIC50 is 5.29.

`CC(C)(C)[C@H](N)C(=O)N[C@@H]1CC[C@H]2CN(S(=O)(=O)c3ccc(C(F)(F)F)cc3)C[C@H]21` [Example 409, 3-methyl-N^1-((3aS,4R,6aR)-2-{[4-(trifluoromethyl)phenyl]sulfonyl}octahydrocyclopenta[c]pyrrol-4-yl)-L-valinamide]: the pIC50 is 5.30.

With `CC[C@H](C)[C@H](NC)C(=O)N[C@H]1CC[C@@H]2CN(S(=O)(=O)c3cccc(C(F)(F)F)c3)C[C@@H]21` [Example 410, N^2-methyl-N^1-((3aR,4S,6aS)-2-{[3-(trifluoromethyl)phenyl]sulfonyl}octahydrocyclopenta[c]pyrrol-4-yl)-L-isoleucinamide], the pIC50 is 5.74.

In the case of `CC[C@H](C)[C@H](NC)C(=O)N[C@H]1CC[C@@H]2CN(S(=O)(=O)c3ccc(C(F)(F)F)cc3)C[C@@H]21` [Example 411, N^2-methyl-N^1-((3aR,4S,6aS)-2-{[4-(trifluoromethyl)phenyl]sulfonyl}octahydrocyclopenta[c]pyrrol-4-yl)-L-isoleucinamide], the pIC50 is 5.37.

For the compound `CN[C@@H](CC(C)(C)C)C(=O)N[C@H]1CC[C@@H]2CN(S(=O)(=O)c3cccc(C(F)(F)F)c3)C[C@@H]21` [Example 414, N^2,4-dimethyl-N^1-((3aR,4S,6aS)-2-{[3-(trifluoromethyl)phenyl]sulfonyl}octahydrocyclopenta[c]pyrrol-4-yl)-L-leucinamide], the pIC50 is 6.05.

`CN[C@@H](CC(C)(C)C)C(=O)N[C@@H]1CC[C@H]2CN(S(=O)(=O)c3cccc(C(F)(F)F)c3)C[C@H]21` [Example 416, N^2,4-dimethyl-N^1-((3aS,4R,6aR)-2-{[3-(trifluoromethyl)phenyl]sulfonyl}octahydrocyclopenta[c]pyrrol-4-yl)-L-leucinamide]: the pIC50 was 5.88.

For the compound `CN[C@@H](CC(C)(C)C)C(=O)N[C@@H]1CC[C@H]2CN(S(=O)(=O)c3ccc(C(F)(F)F)cc3)C[C@H]21` [Example 417, N^2,4-dimethyl-N^1-((3aS,4R,6aR)-2-{[4-(trifluoromethyl)phenyl]sulfonyl}octahydrocyclopenta[c]pyrrol-4-yl)-L-leucinamide], the pIC50 was 5.94.

As to `CCCC[C@H](NC)C(=O)N[C@H]1CC[C@@H]2CN(S(=O)(=O)c3ccc(C(F)(F)F)cc3)C[C@@H]21` [Example 418, N^2-methyl-N^1-((3aR,4S,6aS)-2-{[4-(trifluoromethyl)phenyl]sulfonyl}octahydrocyclopenta[c]pyrrol-4-yl)-L-norleucinamide], the pIC50 is 6.09.

Turning to `CC(C)(C)C[C@H](N)C(=O)N[C@H]1CC[C@@H]2CN(S(=O)(=O)c3ccc(C(F)(F)F)cc3)C[C@@H]21` [Example 419, 4-methyl-N^1-((3aR,4S,6aS)-2-{[4-(trifluoromethyl)phenyl]sulfonyl}octahydrocyclopenta[c]pyrrol-4-yl)-L-leucinamide], the pIC50 was 6.10.

As for `CCC[C@H](NC)C(=O)N[C@@H]1CC[C@@H]2CN(S(=O)(=O)c3ccc(C(F)(F)F)cc3)C[C@@H]21` [Example 420, N^2-methyl-N^1-((3aR,4R,6aS)-2-{[4-(trifluoromethyl)phenyl]sulfonyl}octahydrocyclopenta[c]pyrrol-4-yl)-L-norvalinamide], the pIC50 was 5.24.

For the compound `CN[C@@H](CC(C)C)C(=O)N[C@@H]1CC[C@@H]2CN(S(=O)(=O)c3ccc(C(F)(F)F)cc3)C[C@@H]21` [Example 421, N^2-methyl-N^1-((3aR,4R,6aS)-2-{[4-(trifluoromethyl)phenyl]sulfonyl}octahydrocyclopenta[c]pyrrol-4-yl)-L-leucinamide], the pIC50 was 5.59.

Turning to `CCC[C@H](N)C(=O)N[C@H]1CC[C@@H]2CN(S(=O)(=O)c3cccc(C(F)(F)F)c3)C[C@@H]21` [Example 424, N^1-((3aR,4S,6aS)-2-{[3-(trifluoromethyl)phenyl]sulfonyl}octahydrocyclopenta[c]pyrrol-4-yl)-L-norvalinamide], the pIC50 is 5.51.

Take `CCC[C@H](N)C(=O)N[C@@H]1CC[C@H]2CN(S(=O)(=O)c3cccc(C(F)(F)F)c3)C[C@H]21` [Example 425, N^1-((3aS,4R,6aR)-2-{[3-(trifluoromethyl)phenyl]sulfonyl}octahydrocyclopenta[c]pyrrol-4-yl)-L-norvalinamide]: the pIC50 is 5.49.

In the case of `CN[C@@H](CC1CCCCC1)C(=O)N[C@H]1CC[C@@H]2CN(S(=O)(=O)c3ccc(C(F)(F)F)cc3)C[C@@H]21` [Example 427, 3-cyclohexyl-N^2-methyl-N^1-((3aR,4S,6aS)-2-{[4-(trifluoromethyl)phenyl]sulfonyl}octahydrocyclopenta[c]pyrrol-4-yl)-L-alaninamide], the pIC50 was 5.19.

In the case of `CC(C)(C)C[C@H](N)C(=O)N[C@H]1CC[C@@H]2CN(S(=O)(=O)c3cc(C(F)(F)F)ccc3Cl)C[C@@H]21` [Example 428, N^1-((3aR,4S,6aS)-2-{[2-chloro-5-(trifluoromethyl)phenyl]sulfonyl}octahydrocyclopenta[c]pyrrol-4-yl)-4-methyl-L-leucinamide], the pIC50 was 5.64.

For the compound `CC(C)(C)C[C@H](N)C(=O)N[C@H]1CC[C@@H]2CN(S(=O)(=O)c3ccc(C(F)(F)F)cc3Cl)C[C@@H]21` [Example 429, N^1-((3aR,4S,6aS)-2-{[2-chloro-4-(trifluoromethyl)phenyl]sulfonyl}octahydrocyclopenta[c]pyrrol-4-yl)-4-methyl-L-leucinamide], the pIC50 was 6.02.

For `CN[C@@H](CC(C)(C)C)C(=O)N[C@H]1CC[C@@H]2CN(S(=O)(=O)c3ccc(C(F)(F)F)cc3Cl)C[C@@H]21` [Example 431, N^1-((3aR,4S,6aS)-2-{[2-chloro-4-(trifluoromethyl)phenyl]sulfonyl}octahydrocyclopenta[c]pyrrol-4-yl)-N^2,4-dimethyl-L-leucinamide], the pIC50 is 6.24.

For `CN[C@@H](CC(C)(C)C)C(=O)N(C1CC1)[C@H]1CC[C@@H]2CN(S(=O)(=O)c3ccc(C(F)(F)F)cc3)C[C@@H]21` [Example 433, N^1-cyclopropyl-N^2,4-dimethyl-N^1-((3aR,4S,6aS)-2-{[4-(trifluoromethyl)phenyl]sulfonyl}octahydrocyclopenta[c]pyrrol-4-yl)-L-leucinamide], the pIC50 was 5.90.

Take `CCN(C(=O)[C@H](CC(C)(C)C)NC)[C@H]1CC[C@@H]2CN(S(=O)(=O)c3ccc(C(F)(F)F)cc3)C[C@@H]21` [Example 434, N^1-ethyl-N^2,4-dimethyl-N^1-((3aR,4S,6aS)-2-{[4-(trifluoromethyl)phenyl]sulfonyl}octahydrocyclopenta[c]pyrrol-4-yl)-L-leucinamide]: the pIC50 is 5.57.

In the case of `CCCN(C(=O)[C@H](CC(C)(C)C)NC)[C@H]1CC[C@@H]2CN(S(=O)(=O)c3ccc(C(F)(F)F)cc3)C[C@@H]21` [Example 435, N^2,4-dimethyl-N^1-propyl-N^1-((3aR,4S,6aS)-2-{[4-(trifluoromethyl)phenyl]sulfonyl}octahydrocyclopenta[c]pyrrol-4-yl)-L-leucinamide], the pIC50 is 5.63.

As for `CN[C@@H](CC(C)(C)C)C(=O)N(CC1CC1)[C@H]1CC[C@@H]2CN(S(=O)(=O)c3ccc(C(F)(F)F)cc3)C[C@@H]21` [Example 436, N^1-(cyclopropylmethyl)-N^2,4-dimethyl-N^1-((3aR,4S,6aS)-2-{[4-(trifluoromethyl)phenyl]sulfonyl}octahydrocyclopenta[c]pyrrol-4-yl)-L-leucinamide], the negative logarithm of the IC50 (pIC50) is 5.75.

On to `CN[C@@H](CC(C)(C)C)C(=O)N(C)[C@H]1CC[C@@H]2CN(S(=O)(=O)c3ccc(C(F)(F)F)cc3)C[C@@H]21` [Example 437, N^1,N^2,4-trimethyl-N^1-((3aR,4S,6aS)-2-{[4-(trifluoromethyl)phenyl]sulfonyl}octahydrocyclopenta[c]pyrrol-4-yl)-L-leucinamide], for which the negative-log IC50 (pIC50) is 5.61.

Regarding `CC(C)(C)C[C@H](N)C(=O)N[C@H]1CC[C@@H]2CN(c3ccc(C(F)(F)F)cn3)C[C@@H]21` [Example 440, 4-methyl-N^1-{(3aR,4S,6aS)-2-[5-(trifluoromethyl)pyridin-2-yl]octahydrocyclopenta[c]pyrrol-4-yl}-L-leucinamide], the pIC50 is 5.50.

For the compound `CC(C)(C)C[C@H](N)C(=O)N[C@H]1CC[C@@H]2CN(c3cccc(C(F)(F)F)n3)C[C@@H]21` [Example 441, 4-methyl-N^1-{(3aR,4S,6aS)-2-[6-(trifluoromethyl)pyridin-2-yl]octahydrocyclopenta[c]pyrrol-4-yl}-L-leucinamide], the pIC50 was 6.43.

Regarding `CN[C@@H](CC(C)C)C(=O)N[C@@H]1CC[C@H]2CN(S(=O)(=O)c3cccc(F)c3)C[C@H]21` [Example 443, N^1-{(3aS,4R,6aR)-2-[(3-fluorophenyl)sulfonyl]octahydrocyclopenta[c]pyrrol-4-yl}-N^2-methyl-L-leucinamide], the pIC50 was 5.11.

Regarding `CN[C@@H](CC(C)C)C(=O)N[C@@H]1CC[C@H]2CN(S(=O)(=O)c3ccc(F)cc3)C[C@H]21` [Example 444, N^1-{(3aS,4R,6aR)-2-[(4-fluorophenyl)sulfonyl]octahydrocyclopenta[c]pyrrol-4-yl}-N^2-methyl-L-leucinamide], the pIC50 is 5.68.

With `CN[C@@H](CC(C)C)C(=O)N[C@@H]1CC[C@H]2CN(S(=O)(=O)c3ccc(F)c(F)c3)C[C@H]21` [Example 445, N^1-{(3aS,4R,6aR)-2-[(3,4-difluorophenyl)sulfonyl]octahydrocyclopenta[c]pyrrol-4-yl}-N^2-methyl-L-leucinamide], the pIC50 is 5.10.

Take `CN[C@@H](CC(C)C)C(=O)N[C@@H]1CC[C@H]2CN(S(=O)(=O)c3cc(F)cc(F)c3)C[C@H]21` [Example 446, N^1-{(3aS,4R,6aR)-2-[(3,5-difluorophenyl)sulfonyl]octahydrocyclopenta[c]pyrrol-4-yl}-N^2-methyl-L-leucinamide]: the pIC50 is 5.30.

In general, pIC50 refers to the negative decadic logarithm of the IC50, by convention in mol/L.
